Data taken from PubChem BioAssay AID256 (DTP/NCI, 2004).
Values joined by “and” are separate entries in the source; they are usually repeats but may differ in a detail not shown here. Equal entries are not always repeated. Toxic doses and inconclusive results are not listed.

System: CD2F1 mice, L1210 leukemia ip, survival T/C
Experiment: NCI In Vivo Anticancer Drug Screen. Data for tumor model L1210 Leukemia (intraperitoneal) in CD2F1 (CDF1) mice
Conditions: higher = longer survival
Summary of the method: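 In this screen, transplantable tumors were grown in mice given either the compound or its vehicle. Results were expressed as the treated measurement relative to the control measurement.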

[1] = endpoint: mean survival time, dose: 100.0 mg/kg/injection, schedule: Q01DX009 (ip), vehicle: saline with Tween-80
[2] = endpoint: mean survival time, dose: 200.0 mg/kg/injection, schedule: Q01DX009 (ip), vehicle: saline with Tween-80
[3] = endpoint: mean survival time, dose: 400.0 mg/kg/injection, schedule: Q01DX009 (ip), vehicle: saline with Tween-80

`C[C@]12CC[C@H]3[C@@H](CCC4=C[C@@H](OC5OCC(OC6OC(CO)C(O)C(O)C6O)C(O)C5O)CC[C@@]43C=O)[C@@]1(O)CCC2C1=CC(=O)OC1` (some centres not stated) was tested, and the T/C (endpoint: mean survival time, dose: 0.16 mg/kg/injection, schedule: Q01DX009 (ip), vehicle: Klucel (hydroxypropylcellulose) (HPC)) was 101 % of control, the T/C (endpoint: mean survival time, dose: 0.31 mg/kg/injection, schedule: Q01DX009 (ip), vehicle: Klucel (hydroxypropylcellulose) (HPC)) was 101 % of control and the T/C (endpoint: mean survival time, dose: 0.62 mg/kg/injection, schedule: Q01DX009 (ip), vehicle: Klucel (hydroxypropylcellulose) (HPC)) was 98 % of control. For the same compound, the T/C (endpoint: mean survival time, dose: 0.63 mg/kg/injection, schedule: Q01DX009 (ip), vehicle: Klucel (hydroxypropylcellulose) (HPC)) was 102 % of control, the T/C (endpoint: mean survival time, dose: 1.25 mg/kg/injection, schedule: Q01DX009 (ip), vehicle: Klucel (hydroxypropylcellulose) (HPC)) was 98 % of control and 107 % of control and the T/C (endpoint: mean survival time, dose: 2.5 mg/kg/injection, schedule: Q01DX009 (ip), vehicle: Klucel (hydroxypropylcellulose) (HPC)) was 93 % of control and 95 % of control. The T/C (endpoint: mean survival time, dose: 5.0 mg/kg/injection, schedule: Q01DX009 (ip), vehicle: Klucel (hydroxypropylcellulose) (HPC)) was 102 % of control, the T/C (endpoint: mean survival time, dose: 10.0 mg/kg/injection, schedule: Q01DX009 (ip), vehicle: Klucel (hydroxypropylcellulose) (HPC)) was 108 % of control and the T/C (endpoint: mean survival time, dose: 20.0 mg/kg/injection, schedule: Q01DX009 (ip), vehicle: Klucel (hydroxypropylcellulose) (HPC)) was 113 % of control. The T/C (endpoint: mean survival time, dose: 156.0 micrograms/kg/injection, schedule: Q01DX009 (ip), vehicle: Klucel (hydroxypropylcellulose) (HPC)) was 104 % of control, the T/C (endpoint: mean survival time, dose: 312.0 micrograms/kg/injection, schedule: Q01DX009 (ip), vehicle: Klucel (hydroxypropylcellulose) (HPC)) was 110 % of control and the T/C (endpoint: mean survival time, dose: 625.0 micrograms/kg/injection, schedule: Q01DX009 (ip), vehicle: Klucel (hydroxypropylcellulose) (HPC)) was 100 % of control. For the same compound, the T/C (endpoint: mean survival time, dose: 1250.0 micrograms/kg/injection, schedule: Q01DX009 (ip), vehicle: Klucel (hydroxypropylcellulose) (HPC)) was 92 % of control, the T/C (endpoint: mean survival time, dose: 2500.0 micrograms/kg/injection, schedule: Q01DX009 (ip), vehicle: Klucel (hydroxypropylcellulose) (HPC)) was 101 % of control and the T/C (endpoint: mean survival time, dose: 5000.0 micrograms/kg/injection, schedule: Q01DX009 (ip), vehicle: Klucel (hydroxypropylcellulose) (HPC)) was 101 % of control.

With `C[N+](C)(C)CCP(=O)([O-])O` the T/C (endpoint: mean survival time, dose: 100.0 mg/kg/injection, schedule: Q04DX003 (ip), vehicle: saline) was 98 % of control, the T/C (endpoint: mean survival time, dose: 200.0 mg/kg/injection, schedule: Q04DX003 (ip), vehicle: saline) was 101 % of control and the T/C (endpoint: mean survival time, dose: 400.0 mg/kg/injection, schedule: Q04DX003 (ip), vehicle: saline) was 101 % of control.

In the case of `CCOc1ccc(OCC)c(NC(=O)c2ccccc2)c1`, the T/C [1] is reported as 98 % of control, the T/C [2] is reported as 107 % of control and the T/C [3] is reported as 100 % of control.

With `CN(C)CN1C(=O)S/C(=C2\C(=O)N(CN(C)C)c3ccccc32)C1=O` the T/C (endpoint: median survival time, dose: 50.0 mg/kg/injection, schedule: Q01DX005 (ip), vehicle: Klucel (hydroxypropylcellulose) (HPC)) was 100 % of control, the T/C (endpoint: median survival time, dose: 100.0 mg/kg/injection, schedule: Q01DX005 (ip), vehicle: Klucel (hydroxypropylcellulose) (HPC)) was 98 % of control and the T/C (endpoint: median survival time, dose: 200.0 mg/kg/injection, schedule: Q01DX005 (ip), vehicle: Klucel (hydroxypropylcellulose) (HPC)) was 101 % of control.

For `NC(=S)N/N=C/c1cc(=O)c2cc(Cl)ccc2o1`, the T/C (endpoint: median survival time, dose: 75.0 mg/kg/injection, schedule: Q01DX005 (ip), vehicle: DMSO) was 95 % of control, the T/C (endpoint: median survival time, dose: 150.0 mg/kg/injection, schedule: Q01DX005 (ip), vehicle: DMSO) was 98 % of control and the T/C (endpoint: median survival time, dose: 300.0 mg/kg/injection, schedule: Q01DX005 (ip), vehicle: DMSO) was 97 % of control. For the same compound, the T/C (endpoint: median survival time, dose: 600.0 mg/kg/injection, schedule: Q01DX005 (ip), vehicle: DMSO) was 96 % of control and the T/C (endpoint: median survival time, dose: 1200.0 mg/kg/injection, schedule: Q01DX005 (ip), vehicle: DMSO) was 104 % of control.

With `FC(F)(F)c1cccc([PH+](c2cccc(C(F)(F)F)c2)c2cccc(C(F)(F)F)c2)c1.FC(F)(F)c1cccc([PH+](c2cccc(C(F)(F)F)c2)c2cccc(C(F)(F)F)c2)c1.[Cl][Hg][Cl]` the T/C (endpoint: mean survival time, dose: 12.5 mg/kg/injection, schedule: Q01DX009 (ip), vehicle: Klucel (hydroxypropylcellulose) (HPC)) was 101 % of control, the T/C (endpoint: mean survival time, dose: 25.0 mg/kg/injection, schedule: Q01DX009 (ip), vehicle: Klucel (hydroxypropylcellulose) (HPC)) was 108 % of control and the T/C (endpoint: mean survival time, dose: 50.0 mg/kg/injection, schedule: Q01DX009 (ip), vehicle: Klucel (hydroxypropylcellulose) (HPC)) was 89 % of control.

With `CCCCCCC(=O)/C=C/c1cccc(Cl)c1` the T/C (endpoint: mean survival time, dose: 100.0 mg/kg/injection, schedule: Q04DX003 (ip), vehicle: Klucel (hydroxypropylcellulose) (HPC)) was 104 % of control, the T/C (endpoint: mean survival time, dose: 200.0 mg/kg/injection, schedule: Q04DX003 (ip), vehicle: Klucel (hydroxypropylcellulose) (HPC)) was 102 % of control and the T/C (endpoint: mean survival time, dose: 400.0 mg/kg/injection, schedule: Q04DX003 (ip), vehicle: Klucel (hydroxypropylcellulose) (HPC)) was 91 % of control.

With `Cn1c(CC(O)(C(F)(F)F)C(F)(F)F)cc2ccccc21` the T/C (endpoint: mean survival time, dose: 100.0 mg/kg/injection, schedule: Q01DX001 (ip), vehicle: other) was 106 % of control, the T/C (endpoint: mean survival time, dose: 200.0 mg/kg/injection, schedule: Q01DX001 (ip), vehicle: other) was 92 % of control and the T/C (endpoint: mean survival time, dose: 400.0 mg/kg/injection, schedule: Q01DX001 (ip), vehicle: other) was 95 % of control.

In the case of `[Cl][Pt+2][Cl].[NH-]C1CCCCC1C1CCCCC1[NH-]` (configuration not stated), the T/C (endpoint: mean survival time, dose: 6.25 mg/kg/injection, schedule: Q04DX003 (ip), vehicle: distilled water + Tween-80) is reported as 123 % of control, the T/C (endpoint: mean survival time, dose: 25.0 mg/kg/injection, schedule: Q04DX003 (ip), vehicle: distilled water + Tween-80) is reported as 173 % of control and the T/C (endpoint: mean survival time, dose: 100.0 mg/kg/injection, schedule: Q04DX003 (ip), vehicle: distilled water + Tween-80) is reported as 86 % of control.

`CC(N)(CCOCc1ccccc1)C(=O)O` (configuration not stated) was tested, and the T/C (endpoint: mean survival time, dose: 100.0 mg/kg/injection, schedule: Q01DX001 (ip), vehicle: saline with Tween-80) was 97 % of control, the T/C [1] was 103 % of control and the T/C (endpoint: mean survival time, dose: 200.0 mg/kg/injection, schedule: Q01DX001 (ip), vehicle: saline with Tween-80) was 96 % of control. For the same compound, the T/C [2] was 101 % of control, the T/C (endpoint: mean survival time, dose: 400.0 mg/kg/injection, schedule: Q01DX001 (ip), vehicle: saline with Tween-80) was 103 % of control and the T/C [3] was 101 % of control.
